ChEMBL document CHEMBL3797055, “Glabridin-chalcone hybrid molecules: drug resistance reversal agent against clinical isolates of methicillin-resistant Staphylococcus aureus” (Medchemcomm, 2016)
In brackets after ≈: the same amount, converted by molar mass.

Experiments:
Format in all cases: functional
[1] = test system: Staphylococcus aureus; experiment: Antibacterial activity against clinical isolates of methicillin-resistant Staphylococcus aureus ST2071 by broth microdilution assay
[2] = test system: Staphylococcus aureus; experiment: Antibacterial activity against clinical isolates of methicillin-resistant Staphylococcus aureus ST10342 by broth microdilution assay
[3] = test system: Staphylococcus aureus; experiment: Antibacterial activity against Staphylococcus aureus MTCC 96 by broth microdilution assay
[4] = test system: Staphylococcus aureus; experiment: Antibacterial activity against clinical isolates of methicillin-resistant Staphylococcus aureus P4423 by broth microdilution assay
[5] = test system: Staphylococcus aureus; experiment: Antibacterial activity against clinical isolates of methicillin-resistant Staphylococcus aureus P4629 by broth microdilution assay
[6] = test system: Staphylococcus aureus; experiment: Antibacterial activity against clinical isolates of methicillin-resistant Staphylococcus aureus P4650 by broth microdilution assay
[7] = test system: Staphylococcus aureus; experiment: Antibacterial activity against clinical isolates of methicillin-resistant Staphylococcus aureus ST10760 by broth microdilution assay

| SMILES | MIC [1] [mg/L] | MIC [2] [mg/L] | MIC [3] [mg/L] | MIC [4] [mg/L] | MIC [5] [mg/L] | MIC [6] [mg/L] | MIC [7] [mg/L] |
| --- | --- | --- | --- | --- | --- | --- | --- |
| COc1cc(OC)c([C@@H]2COc3c(cc(/C=C/C(=O)c4ccccc4OC)c4c3C=CC(C)(C)O4)C2)cc1/C=C/C(=O)c1ccccc1OC | 100 (≈ 149 µM) | 100 (≈ 149 µM) | 50 (≈ 74.3 µM) | 100 (≈ 149 µM) | 100 (≈ 149 µM) | 100 (≈ 149 µM) | 100 (≈ 149 µM) |
| COc1ccc(C(=O)/C=C/c2cc([C@@H]3COc4c(cc(/C=C/C(=O)c5ccc(OC)cc5OC)c5c4C=CC(C)(C)O5)C3)c(OC)cc2OC)c(OC)c1 | 50 (≈ 68.2 µM) | 50 (≈ 68.2 µM) | 50 (≈ 68.2 µM) | 50 (≈ 68.2 µM) | 50 (≈ 68.2 µM) | 50 (≈ 68.2 µM) | 50 (≈ 68.2 µM) |
| CCn1cc(C(=O)O)c(=O)c2cc(F)c(N3CCNCC3)cc21 [NORFLOXACIN] | 500 (≈ 1570 µM) | 250 (≈ 783 µM) | 1.56 (≈ 4.89 µM) | 250 (≈ 783 µM) | 500 (≈ 1570 µM) | 125 (≈ 391 µM) | 500 (≈ 1570 µM) |
| COc1ccc(C(=O)/C=C/c2cc3c(c4c2OC(C)(C)C=C4)OC[C@@H](c2ccc(OC)cc2OC)C3)cc1 | > 100 | > 100 | > 100 | > 100 | > 100 | > 100 | > 100 |
| COc1ccc([C@@H]2COc3c(ccc4c3C=CC(C)(C)O4)C2)c(OC)c1 | > 100 | > 100 | > 100 | > 100 | > 100 | > 100 | > 100 |
| COc1cc(OC)c([C@@H]2COc3c(ccc4c3C=CC(C)(C)O4)C2)cc1C=O | > 100 | > 100 | > 100 | > 100 | > 100 | > 100 | > 100 |
| COc1cc(OC)c([C@@H]2COc3c(ccc4c3C=CC(C)(C)O4)C2)cc1/C=C/C(=O)c1ccccc1 | 25 (≈ 51.8 µM) | 25 (≈ 51.8 µM) | 25 (≈ 51.8 µM) | 25 (≈ 51.8 µM) | 25 (≈ 51.8 µM) | 25 (≈ 51.8 µM) | 25 (≈ 51.8 µM) |
| COc1cc(OC)c([C@@H]2COc3c(ccc4c3C=CC(C)(C)O4)C2)cc1/C=C/C(=O)c1ccc(OC)c(OC)c1 | > 100 | > 100 | 100 (≈ 184 µM) | > 100 | > 100 | > 100 | > 100 |
| COc1cc(OC)c([C@@H]2COc3c(ccc4c3C=CC(C)(C)O4)C2)cc1/C=C/C(=O)c1ccccc1OC | > 100 | > 100 | > 100 | > 100 | > 100 | > 100 | > 100 |
| COc1cccc(C(=O)/C=C/c2cc3c(c4c2OC(C)(C)C=C4)OC[C@@H](c2ccc(OC)cc2OC)C3)c1 | 25 (≈ 48.8 µM) | 25 (≈ 48.8 µM) | 25 (≈ 48.8 µM) | 25 (≈ 48.8 µM) | 25 (≈ 48.8 µM) | 25 (≈ 48.8 µM) | 25 (≈ 48.8 µM) |
| COc1cc(OC)c([C@@H]2COc3c(ccc4c3C=CC(C)(C)O4)C2)cc1/C=C/C(=O)c1ccco1 | 25 (≈ 52.9 µM) | 25 (≈ 52.9 µM) | 25 (≈ 52.9 µM) | 25 (≈ 52.9 µM) | 25 (≈ 52.9 µM) | 25 (≈ 52.9 µM) | 25 (≈ 52.9 µM) |
| COc1cc(OC)c([C@@H]2COc3c(cc(/C=C/C(=O)c4ccccc4)c4c3C=CC(C)(C)O4)C2)cc1/C=C/C(=O)c1ccccc1 | 25 (≈ 40.8 µM) | 25 (≈ 40.8 µM) | 25 (≈ 40.8 µM) | 25 (≈ 40.8 µM) | 25 (≈ 40.8 µM) | 25 (≈ 40.8 µM) | 25 (≈ 40.8 µM) |
| COc1cc(OC)c([C@@H]2COc3c(ccc4c3C=CC(C)(C)O4)C2)cc1/C=C/C(=O)c1cc(OC)c(OC)c(OC)c1 | 25 (≈ 43.7 µM) | 25 (≈ 43.7 µM) | 25 (≈ 43.7 µM) | 25 (≈ 43.7 µM) | 25 (≈ 43.7 µM) | 25 (≈ 43.7 µM) | 25 (≈ 43.7 µM) |
| COc1ccc([C@@H]2COc3c(cc(/C=C/C(=O)c4ccc[nH]4)c4c3C=CC(C)(C)O4)C2)c(OC)c1 | > 100 | > 100 | 100 (≈ 212 µM) | > 100 | > 100 | > 100 | > 100 |
| COc1cc(OC)c([C@@H]2COc3c(cc(C=O)c4c3C=CC(C)(C)O4)C2)cc1C=O | > 100 | > 100 | > 100 | > 100 | > 100 | > 100 | > 100 |
| COc1cccc(C(=O)/C=C/c2cc([C@@H]3COc4c(cc(/C=C/C(=O)c5cccc(OC)c5)c5c4C=CC(C)(C)O5)C3)c(OC)cc2OC)c1 | > 100 | > 100 | > 100 | > 100 | > 100 | > 100 | > 100 |
| COc1ccc([C@@H]2COc3c(cc(/C=C/C(=O)c4ccccc4OC)c4c3C=CC(C)(C)O4)C2)c(OC)c1 | 50 (≈ 97.5 µM) | 50 (≈ 97.5 µM) | 25 (≈ 48.8 µM) | 50 (≈ 97.5 µM) | 25 (≈ 48.8 µM) | 25 (≈ 48.8 µM) | 50 (≈ 97.5 µM) |
| COc1ccc(C(=O)/C=C/c2cc([C@@H]3COc4c(ccc5c4C=CC(C)(C)O5)C3)c(OC)cc2OC)c(OC)c1 | 25 (≈ 46.1 µM) | 25 (≈ 46.1 µM) | 12.5 (≈ 23 µM) | 25 (≈ 46.1 µM) | 25 (≈ 46.1 µM) | 12.5 (≈ 23 µM) | 25 (≈ 46.1 µM) |
| COc1ccc([C@@H]2COc3c(cc(/C=C/C(=O)c4ccccc4)c4c3C=CC(C)(C)O4)C2)c(OC)c1 | 25 (≈ 51.8 µM) | 25 (≈ 51.8 µM) | 25 (≈ 51.8 µM) | 25 (≈ 51.8 µM) | 25 (≈ 51.8 µM) | 25 (≈ 51.8 µM) | 25 (≈ 51.8 µM) |
| COc1cc(OC)c([C@@H]2COc3c(ccc4c3C=CC(C)(C)O4)C2)cc1/C=C/C(=O)c1ccc[nH]1 | 50 (≈ 106 µM) | 50 (≈ 106 µM) | 25 (≈ 53 µM) | 50 (≈ 106 µM) | 50 (≈ 106 µM) | 50 (≈ 106 µM) | 50 (≈ 106 µM) |
| COc1ccc(C(=O)/C=C/c2cc([C@@H]3COc4c(ccc5c4C=CC(C)(C)O5)C3)c(OC)cc2OC)cc1 | > 100 | > 100 | 50 (≈ 97.5 µM) | > 100 | > 100 | > 100 | > 100 |
| COc1ccc([C@@H]2COc3c(cc(/C=C/C(=O)c4cc(OC)c(OC)c(OC)c4)c4c3C=CC(C)(C)O4)C2)c(OC)c1 | 25 (≈ 43.7 µM) | 25 (≈ 43.7 µM) | 25 (≈ 43.7 µM) | 25 (≈ 43.7 µM) | 25 (≈ 43.7 µM) | 25 (≈ 43.7 µM) | 25 (≈ 43.7 µM) |
| COc1ccc(C(=O)/C=C/c2cc([C@@H]3COc4c(cc(/C=C/C(=O)c5ccc(OC)cc5)c5c4C=CC(C)(C)O5)C3)c(OC)cc2OC)cc1 | > 100 | > 100 | 100 (≈ 149 µM) | > 100 | > 100 | > 100 | > 100 |
| COc1cc(OC)c([C@@H]2COc3c(cc(/C=C/C(=O)c4cc(OC)c(OC)c(OC)c4)c4c3C=CC(C)(C)O4)C2)cc1/C=C/C(=O)c1cc(OC)c(OC)c(OC)c1 | 100 (≈ 126 µM) | 100 (≈ 126 µM) | 50 (≈ 63.1 µM) | 100 (≈ 126 µM) | 100 (≈ 126 µM) | 100 (≈ 126 µM) | 100 (≈ 126 µM) |
| COc1ccc([C@@H]2COc3c(cc(C=O)c4c3C=CC(C)(C)O4)C2)c(OC)c1 | > 100 | > 100 | > 100 | > 100 | > 100 | > 100 | > 100 |
| COc1cccc(C(=O)/C=C/c2cc([C@@H]3COc4c(ccc5c4C=CC(C)(C)O5)C3)c(OC)cc2OC)c1 | 50 (≈ 97.5 µM) | 50 (≈ 97.5 µM) | 25 (≈ 48.8 µM) | 50 (≈ 97.5 µM) | 50 (≈ 97.5 µM) | 50 (≈ 97.5 µM) | 50 (≈ 97.5 µM) |
